US9359311B2, “Substituted aromatic oligomers” (NEUROSCIOS GMBH, priority 2011, dated 2016)
“Also recorded” adds a separate entry of the source.

What was measured:
primary chicken neurons = experiment: Inhibition of Abeta 1-42 toxicity on primary chicken neurons (MTT); assay type: cell-based; design: key: No: no effect; +: minor positive effect on cell viability in the presence of aggregated Aβ 1-42; ++: medium positive effect on cell viability in the presence of aggregated Aβ 1-42; +++: strong positive effect on cell viability in the presence of aggregated Aβ 1-42; details: 10 μM Aβ1-42 aggregated together with compound for 48 h
Method: One-day-old fertilized eggs are stored under appropriate conditions until start of breeding. On embryonic day 0 eggs are transferred to the breeding incubator and under turning, kept at 37.8° C. and 55% humidity until embryonic day eight. Neurons are prepared as follows: In short, embryos are transferred to a plastic dish, and decapitated. Both brain hemispheres are removed, collected and any loose tissue removed. Hemispheres are mechanically dissociated and 4.8×10^4 cells per well (96-well plates) are seeded in a volume of 160 μl.
Aβ1-42 (MW 4514.1) was obtained from American Peptide Company as a lyophilized powder. A stock solution of 340 μM Aβ1-42 was prepared in 50 mM Tris-Buffer, 150 mM NaCl, pH7.6 according to the manufacturer's instructions. After sonication, the stock solution is diluted 1:1 with the test compounds to obtain a concentration of 170, 17 and 1.7 μM. After aggregation at 4° C. for 48 h, the solutions are sonicated again prior to application to the cells. The final concentration of Aβ1-42 applied to the primary chicken neurons is 10 μM.
Aβ1-42 aggregated together with compound for 48 hrs was applied to chicken neurons at DIV4 (days in vitro) and analyzed at DIV10 (144 hrs) and all others were applied to chicken neurons at DIV6 and analysed at DIV10 (96 hrs).
Viability of cultures is determined by the MTT assay. The MTT assay allows for the measurement of the mitochondrial dehydrogenase activity which reduces yellow MTT to dark blue formazan crystals. Since this reaction is catalyzed in living cells only this assay is used for the determination of cell viability. MTT solution is added to each well in a final concentration of 0.5 mg/ml. After 2 hours the MTT containing medium is aspired. Cells are lysed in 3% SDS and the formazan crystals are dissolved in isopropanol/HCl. Optical density is measured with a plate-reader at wavelength 570 nm. Cell survival rate is expressed as a percentage of optical density (OD) relative to control cells not treated with Aβ or compound.

biotinylated Aβ1-42 = molecular target: T1, biotinylated Aβ1-42 (Homo sapiens, UniProt P05067); experiment: Inhibition of Abeta oligomerisation (biotinylated Aβ1-42, neutravidin plate, streptavidin-HRP); assay type: biochemical; details: inhibition of Aβ1-42 aggregation, approximately 12 nM Aβ1-42, PBS pH 7.4, 2% DMSO, 30 min RT
T1 construct: To assure monomerisation of biotinylated Aβ1-42 (Anaspec #23523-0.5) the peptide was thoroughly monomerised; purchased Anaspec 23523-0.5

[1] = test system: amyloid depositions (plaques); experiment: Plaque number and plaque area in hAPPSL Tg mice (ThioflavinS staining); assay type: in vivo, mouse; details: twice daily i.p., 90 days, vs vehicle
Method: Vehicle: Phosphate Buffered Saline (PBS; 6.7 mM PO4, 155 mM NaCl, pH=7.3-7.5) (BioWhittaker PBS from Lonza).
Test Item (T.I.): p-FTAA and P9707_003, diluted in vehicle from stock solution in deionized water (10 mg/ml).
Tg hAPPSL: Transgenic hAPPSL mice over-expressing hAPP(751) under the control of the murine Thy-1 promoter with a C57BL/6xDBA background.
48 hAPP Tg mice plus 4 reserves allocated to 4 different treatment groups were treated with either vehicle only (control), p-FTAA or P9707_003. As an additional control, 12 nTg littermates of the hAPPSL mice (plus 1 reserve) were treated with vehicle only. Starting at 6.5 months of age, female hAPPSL mice were treated with vehicle only, p-FTAA (dosage: 1 or 10 mg/kg/day) or P9707_003 (dosage: 10 mg/kg/day) for 90 days. The Test Items (T.I.s) were administered in Vehicle. Compound and vehicle were administered twice daily i.p. for 90 days. Tg hAPPSL mice with a C57BL/6xDBA background and corresponding nTg littermates at an age of 6.5 months (+2 weeks) were randomly assigned to the treatment groups. […]
Plaque load was quantified by staining with ThioflavinS staining of beta-sheet structures in a double incubation.
For determination of amyloid depositions 5 slices (1 from each level) per brain were stained and screened. Region areas (hippocampus and cortex) were measured and plaque surface area, number of plaques and mean size of objects within each region were quantified separately using automated image analysis software (Image Pro Plus, version 6.2).
Mosaic images for plaque load quantification including the whole cortex and hippocampus were recorded on a Zeiss AxioImager.Z1 microscope using high aperture lenses and an AxioVision 4.8 software driven AxioCam MRm (10× lens, 1× optocoupler). Plaques for AT180 quantifcation were imaged with a 20× lens. […]
Descriptive statistical analysis was performed on all evaluated parameters, Kolmogorov Smirnov test were performed to test normal distribution of data. […]

[2] = P9707_003 10 mg/kg/day, p-FTAA 1 or 10 mg/kg/day

T1 sequence (P05067 672-713 limits assumed): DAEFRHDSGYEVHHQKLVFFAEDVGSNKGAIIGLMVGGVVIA

O=C(O)Cc1ccsc1-c1ccc(-c2sc(-c3ccc(-c4cc(CC(=O)O)c(-c5ccc(-c6sccc6CC(=O)O)s5)s4)s3)cc2CC(=O)O)s1 [Example 1, 2-(2-{5-[3-(Carboxymethyl)-5-{5-[4-(carboxymethyl)-5-{5-[3-(carboxymethyl)thiophen-2-yl]thiophen-2-yl}thiophen-2-yl]thiophen-2-yl}thiophen-2-yl]thiophen-2-yl}thiophen-3-yl)acetic acid]
Rescue of Abeta toxicity (MTT) (primary chicken neurons; Conc. 0.1 μM): no | Rescue of Abeta toxicity (MTT) (primary chicken neurons; Conc. 1 μM): +++ | Rescue of Abeta toxicity (MTT) (primary chicken neurons; Conc. 10 μM): +++ | IC50 (biotinylated Aβ1-42): 794 nM | reduction of plaque number in the hippocampus ([1]; 10 mg/kg/day, ThioflavinS): 54% | hippocampal plaque area percentage (ThioflavinS) [1, 2]: significantly lower plaque load; also recorded: reduced | number of ThioflavinS positive objects (plaque number) in the hippocampus [1, 2]: reduced object number; also recorded: highly significant reduced
